B1: rTth: rTth DNA polymerase (protein, UniProt P52028 1-834, looked up)
DNA polymerase I, thermostable: MEAMLPLFEPKGRVLLVDGHHLAYRTFFALKGLTTSRGEPVQAVYGFAKSLLKALKEDGYKAVFVVFDAKAPSFRHEAYEAYKAGRAPTPEDFPRQLALIKELVDLLGFTRLEVPGYEADDVLATLAKKAEKEGYEVRILTADRDLYQLVSDRVAVLHPEGHLITPEWLWEKYGLRPEQWVDFRALVGDPSDNLPGVKGIGEKTALKLLKEWGSLENLLKNLDRVKPENVREKIKAHLEDLRLSLELSRVRTDLPLEVDLAQGREPDREGLRAFLERLEFGSLLHEFGLLEAPAPLEEAPWPPPEGAFVGFVLSRPEPMWAELKALAACRDGRVHRAADPLAGLKDLKEVRGLLAKDLAVLASREGLDLVPGDDPMLLAYLLDPSNTTPEGVARRYGGEWTEDAAHRALLSERLHRNLLKRLEGEEKLLWLYHEVEKPLSRVLAHMEATGVRLDVAYLQALSLELAEEIRRLEEEVFRLAGHPFNLNSRDQLERVLFDELRLPALGKTQKTGKRSTSAAVLEALREAHPIVEKILQHRELTKLKNTYVDPLPSLVHPRTGRLHTRFNQTATATGRLSSSDPNLQNIPVRTPLGQRIRRAFVAEAGWALVALDYSQIELRVLAHLSGDENLIRVFQEGKDIHTQTASWMFGVPPEAVDPLMRRAAKTVNFGVLYGMSAHRLSQELAIPYEEAVAFIERYFQSFPKVRAWIEKTLEEGRKRGYVETLFGRRRYVPDLNARVKSVREAAERMAFNMPVQGTAADLMKLAMVKLFPRLREMGARMLLQVHDELLLEAPQARAEEVAALAKEAMEKAYPLAVPLEVEVGMGEDWLSAKG
B2: 9° N: 9∘N DNA Polymerase (NEB) (protein, UniProt Q56366 1-775, looked up)
DNA polymerase: MILDTDYITENGKPVIRVFKKENGEFKIEYDRTFEPYFYALLKDDSAIEDVKKVTAKRHGTVVKVKRAEKVQKKFLGRPIEVWKLYFNHPQDVPAIRDRIRAHPAVVDIYEYDIPFAKRYLIDKGLIPMEGDEELTMLAFDIETLYHEGEEFGTGPILMISYADGSEARVITWKKIDLPYVDVVSTEKEMIKRFLRVVREKDPDVLITYNGDNFDFAYLKKRCEELGIKFTLGRDGSEPKIQRMGDRFAVEVKGRIHFDLYPVIRRTINLPTYTLEAVYEAVFGKPKEKVYAEEIAQAWESGEGLERVARYSMEDAKVTYELGREFFPMEAQLSRLIGQSLWDVSRSSTGNLVEWFLLRKAYKRNELAPNKPDERELARRRGGYAGGYVKEPERGLWDNIVYLDFRSLYPSIIITHNVSPDTLNREGCKEYDVAPEVGHKFCKDFPGFIPSLLGDLLEERQKIKRKMKATVDPLEKKLLDYRQRAIKILANSFYGYYGYAKARWYCKECAESVTAWGREYIEMVIRELEEKFGFKVLYADTDGLHATIPGADAETVKKKAKEFLKYINPKLPGLLELEYEGFYVRGFFVTKKKYAVIDEEGKITTRGLEIVRRDWSEIAKETQARVLEAILKHGDVEEAVRIVKEVTEKLSKYEVPPEKLVIHEQITRDLRDYKATGPHVAVAKRLAARGVKIRPGTVISYIVLKGSGRIGDRAIPADEFDPTKHRYDAEYYIENQVLPAVERILKAFGYRKEDLRYQKTKQVGLGAWLKVKGKK

Legend:
[1] = biological target: T1, Therminator II DNA polymerase (Thermococcus sp., UniProt Q56366, A485L/D141A/E143A/Y409V); experiment: Polymerase extension assay: incorporation of 3′-O-propargyl-dNTP at the 3′ end of a primer on KRAS template; type: biochemical, Thermococcus sp. 9∘N; details: 2 mM MnCl2, KRAS template, 35 cycles, size analysis by gel electrophoresis
T1 construct: purchased New England BioLabs
T1 sequence (Q56366 whole entry D141A/E143A/Y409V/A485L): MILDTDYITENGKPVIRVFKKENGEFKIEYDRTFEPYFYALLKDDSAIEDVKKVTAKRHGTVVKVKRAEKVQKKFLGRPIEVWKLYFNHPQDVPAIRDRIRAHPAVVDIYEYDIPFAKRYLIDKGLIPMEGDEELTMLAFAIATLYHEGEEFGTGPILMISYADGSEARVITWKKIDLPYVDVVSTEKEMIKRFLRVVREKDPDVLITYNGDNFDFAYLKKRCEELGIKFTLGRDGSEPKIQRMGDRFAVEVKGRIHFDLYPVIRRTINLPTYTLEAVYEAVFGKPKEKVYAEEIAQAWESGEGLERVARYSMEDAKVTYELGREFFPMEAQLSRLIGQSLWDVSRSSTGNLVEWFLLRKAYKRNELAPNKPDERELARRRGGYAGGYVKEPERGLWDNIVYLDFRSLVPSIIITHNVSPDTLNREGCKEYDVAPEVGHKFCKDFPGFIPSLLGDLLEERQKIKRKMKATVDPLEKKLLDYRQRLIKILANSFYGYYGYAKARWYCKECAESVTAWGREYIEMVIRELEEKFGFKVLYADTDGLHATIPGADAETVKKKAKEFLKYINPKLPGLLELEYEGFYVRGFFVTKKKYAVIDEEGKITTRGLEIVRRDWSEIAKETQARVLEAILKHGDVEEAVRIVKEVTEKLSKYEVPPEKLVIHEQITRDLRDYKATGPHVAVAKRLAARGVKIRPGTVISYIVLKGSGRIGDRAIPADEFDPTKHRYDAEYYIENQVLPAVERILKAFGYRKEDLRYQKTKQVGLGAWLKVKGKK
Procedure: During the development of embodiments of the technology provided herein, experiments were conducted to assess the incorporation of 3′-O-propargyl-dNTPs into a nucleic acid by a polymerase. In particular, experiments were conducted to evaluate the accurate incorporation of 3′-O-propargyl-dNTPs into a nucleic acid and to evaluate the terminating activity of the 3′-O-propargyl-dNTPs. To assess these characteristics of the nucleotide analogs provided herein, polymerase extension assays were conducted using a template nucleic acid having a sequence from human KRAS (e.g., KRAS exon 2 and flanking intron sequences) and a complementary primer (Table 2).
To test incorporation of a 3′-O-propargyl-dTTP into a nucleic acid, a polymerase extension reaction mix was assembled comprising 20 mM Tris-HCl, 10 mM (NH4)SO4, 10 mM KCl, 2 mM MnCl2, 0.1% Triton X-100, 200 μmol 3′-O-propargyl-dTTP, 6.25 μmol of primer R_ke2_trP1_T_bio (SEQ ID NO: 2), and 2 units of Therminator II DNA polymerase (New England BioLabs) in a 25-μl final reaction volume. A volume of 0.5 μmol of the KRAS template (SEQ ID NO: 1) was used as template (Table 2). The polymerase extension reaction was performed using a temperature cycling profile comprising exposing the reaction to a temperature of 95° C. for 2 minutes followed by 35 cycles of 95° C. for 15 seconds, 55° C. for 25 seconds, and 65° C. for 35 seconds.
(§1) After the polymerase extension reaction, 1 μl of the reaction mix was used directly for nucleic acid size analysis by gel electrophoresis (e.g., using an Agilent 2100 Bioanalyzer and High Sensitivity DNA Assay Chip).
Additional polymerase extension experiments were performed using the reaction conditions described above and replacing the 3′-O-propargyl-dTTP and the primer R_ke2_trP1_T_bio with 3′-O-propargyl-dATP and the primer R_ke2_trP1_A bio (SEQ ID NO: 3); 3′-O-propargyl-dCTP and the primer R_ke2_trP1_C bio (SEQ ID NO: 5); and 3′-O-propargyl dGTP and the primer R_ke2_trP1_G bio (SEQ ID NO: 4).

[2] = biological target: T1, Therminator II DNA polymerase; experiment: Ladder fragment generation with natural dNTPs and one 3′-O-propargyl-dNTP; type: biochemical, Thermococcus sp. 9∘N; details: natural dNTPs plus one 3′-O-propargyl-dNTP, KRAS template, 50 cycles
Procedure: During the development of embodiments of the technology provided herein, experiments were conducted to assess using the nucleotide analogs of the present technology to generate nucleic acid fragments that terminate at base-specific positions. In particular, reaction mixtures were produced and tested that included both natural dNTPs and each of the 3′-O-propargyl-dNTPs individually.
To test the fragment generation by 3′-O-propargyl-dTTP, a DNA fragment generation reaction mix was prepared comprising 20 mM Tris-HCl, 10 mM (NH4)SO4, 10 mM KCl, 2 mM MnCl2, 0.1% Triton X-100, 1000 μmol dATP, 1000 μmol dCTP, 1000 μmol dGTP, 1000 μmol dTTP, 200 μmol 3′-O-propargyl-dTTP, 6.25 μmol of primer R_ke2_trP1_T_bio (SEQ ID NO: 2), and 2 units of THERMINATOR II DNA polymerase (New England BioLabs) in a 25-μl final reaction volume. A volume of 0.5 μmol of the KRAS template (SEQ ID NO: 1) was used as template. The polymerase extension reaction was performed using a temperature cycling profile comprising exposing the reaction to a temperature of 95° C. for 2 minutes followed by 50 cycles of 95° C. for 15 seconds, 55° C. for 25 seconds, and 65° C. for 35 seconds.
as §1
Additional polymerase extension experiments were performed using the reaction conditions described above and replacing the 3′-O-propargyl-dTTP with 3′-O-propargyl-dATP, 3′-O-propargyl-dCTP, or 3′-O-propargyl dGTP.

[3] = tested on: 3′-O-propargyl-dNTP; experiment: Polymerase screening by nucleotide extension assay (incorporation of 3′-O-propargyl-dNTP as substrate); type: biochemical; set-up: key: a minus (“−”) indicates that the polymerase did not produce a detectable product incorporating the 3′-O-propargyl dNTP; a single plus (“+”) indicates that the polymerase produced a detectable product incorporating the 3′-O-propargyl dNTP; three plusses (“+++”) indicates that the polymerase produced a substantial amount of 3′-O-propargyl dNTP incorporation product
Text: For example, in some exemplary assays and/or embodiments, compatible polymerases are identified by a polymerase extension reaction (e.g., a single base extension reaction). See, e.g., Ausebel et al. (eds.), Current Protocols in Molecular Biology. New York: John Wiley & Sons, Inc; Sambrook et al. (1989). Molecular Cloning: A Laboratory Manual. (2nd ed.). Cold Spring Harbor: Cold Spring Harbor Laboratory Press.
For example, identifying compatible polymerases comprises providing a polymerase to test and a reaction buffer appropriate for the polymerase. For polymerases obtained from a commercial supplier (e.g., New England BioLabs, United States Biologicals, Promega, Invitrogen, Worthington, Sigma-Aldrich, Fluka, Finnzymes, Roche, 5 Prime, Qiagen, KAPA Biosystems, Thermo Scientific, Agilent, Life Technologies, etc.), the polymerase is often supplied with an appropriate reaction buffer. An exemplary reaction buffer comprises, e.g., a compatible buffer (e.g., 20 mM Tris-HCl), a salt (e.g., 10 mM KCl), a source of magnesium or manganese (e.g., 2 mM MgSO4; 2 mM MnCl2, etc.), a detergent (e.g., 0.1% TRITON X-100) and has a suitable pH (e.g., approximately pH 8.8 at approximately 25° C.). The activities of some polymerases are improved in the presence of other compounds, such as sulfate and other salts (e.g., 10 mM (NH4)2SO4). Reaction mixtures for polymerase extension reactions are typically tested using Mg^2+ or Mn^2+ as the enzyme cofactor.
Polymerases are tested by providing in the reaction mixture a DNA template, a DNA primer that is complementary to the DNA template, and one or more nucleotides and/or nucleotide analogs. Typical concentrations of template and primer are approximately from 1 to 100 nM and typical concentrations of nucleotides and/or nucleotide analogs are approximately from 1 to 125 μM (e.g., 1 to 125 μM for each nucleotide and/or nucleotide analog and/or 1 to 500 μM total concentration of all nucleotides and/or nucleotide analogs). Templates and primers are synthesized by methods known in the art (e.g., using solid supports and phosphoramidite chemistry) and are available from several commercial suppliers (e.g., Integrated DNA Technologies, Coralville, Iowa).
A pre-annealed primer/template is typically produced for testing polymerases. For example, the primer is typically resuspended in a suitable buffer (e.g., Tris-EDTA, pH 8.0) at a suitable concentration, e.g., at 1 to 500 μM (e.g., at 100 μM) and the template is typically resuspended in a suitable buffer (e.g., Tris-EDTA, pH 8.0) at a suitable concentration, e.g., at 1 to 500 μM (e.g., at 100 μM). […] For example, a pre-annealed primer/template is produced by mixing approximately 100 μl of the approximately 1 to 500 μM (e.g., at 100 μM) primer solution to approximately 100 μl of the approximately 1 to 500 μM (e.g., at 100 μM) template solution in approximately 800 μl of an annealing buffer (e.g., 200 mM Tris, 100 mM potassium chloride, and 0.1 mM EDTA, pH 8.45) to provide a milliliter of primer/template solution. One of skill in the art can scale the volumes and concentrations as appropriate for the concentrations and volumes that are appropriate for the particular analysis. Then, an aliquot (e.g., 100 μl) of the primer/template solution is heated to denature intramolecular and/or intermolecular secondary structures (e.g., by heating at approximately 85° C. to 97° C. (e.g., at approximately 95° C.), e.g., for 1 to 5 minutes (e.g., 2 minutes). Next, the aliquot is cooled to an annealing temperature (e.g., 20° C. to 60° C. (e.g., 25° C.) and incubated for 1 to 10 minutes (e.g., for approximately 5 minutes) to allow the primer and template to anneal to form a primer/template. The primer/template can be diluted in an appropriate substrate dilution buffer (e.g., 20 mM Tris, 10 mM potassium chloride, and 0.01 mM EDTA, pH 8.45; e.g., a 1 to 10 dilution of the annealing buffer described above) for storage. […]

Molecule	incorporation at the 3′ end of the primer [1]	generation of nucleic acid fragments terminated at base-specific positions [2]	product incorporating the 3′-O-propargyl dNTP ([3]; co-factor Mg^2+)	product incorporating the 3′-O-propargyl dNTP ([3]; co-factor Mn^2+)	amounts of the two populations of nucleic acids (primer length vs primer plus one base) [1]
C#CCO[C@H]1C[C@H](n2cnc3c(N)ncnc32)O[C@@H]1COP(=O)(O)OP(=O)(O)OP(=O)(O)O [3′-O-propargyl-dATP, 3′-O-propargyl-2′-deoxyadenosine-5′-triphosphate]	successful incorporation	generated populations of nucleic acid fragments having a range of sizes corresponding to the expected lengths			
Amplitaq Gold: polymerase enzyme sold under the trade name Ampli-Taq (Life Technologies)			−	−	
C#CCO[C@H]1C[C@H](n2cc(C)c(=O)[nH]c2=O)O[C@@H]1COP(=O)(O)OP(=O)(O)OP(=O)(O)O [3′-O-propargyl-dTTP, 3′-O-propargyl-2′-deoxythymidine-5′-triphosphate]	successful incorporation	generated a population of nucleic acid fragments having a range of sizes corresponding to the expected lengths			approximately equal
B1			−	−	
B2			−	+	

Reference: patent US10995363B2, “Nucleotide analogs” (ABBOTT MOLECULAR INC., priority 2013, dated 2021)
